Test results taken from patent publication US20090291908A1, “Use of thiophoshonoformic acid and nrtis to treat viral infections” (priority 2005, published 2009).

Key:
[1] = test system: Thiovir™ resistant HIVLAI, selection 2 (L214F, M184I); experiment: IC50 by MAGI assay on selected resistant virus; format: cell-based, HIV-1; conditions: for Susceptibility Index (IC50 Resistant Virus/IC50 Purent Virus): Drug Resistant Virus: Thiovir ™ (Selection # 2), MAGI assay
Description: (§1) Thiovir™ and foscarnet resistant viruses were selected by in vitro passage of HIVLAI on H9 cells in the presence of escalating concentrations of drug. Resistant virus was evaluated for phenotypic changes by IC50 determination using the MAGI assay. Furthermore, the viral DNA was sequenced to determine genotypic variations (Table 4). Two independent 13 to 15 round selections were performed.

[2] = test system: Thiovir™ resistant HIVLAI, selection 1 (L214F, R172K, Q174R); experiment: IC50 by MAGI assay on selected resistant virus; format: cell-based, HIV-1; conditions: for Susceptibility Index (IC50 Resistant Virus/IC50 Purent Virus): Drug Resistant Virus: Thiovir ™ (Selection # 1), MAGI assay
Description: as §1

[3] = test system: Foscarnet resistant HIVLAI, selection 2 (L214F, M184I); experiment: IC50 by MAGI assay on selected resistant virus; format: cell-based, HIV-1; conditions: Drug Resistant Virus: Foscarnet (Selection # 2)
Description: as §1

[4] = test system: Foscarnet resistant HIVLAI, selection 1 (L214F, R172K); experiment: IC50 by MAGI assay on selected resistant virus; format: cell-based, HIV-1; conditions: Drug Resistant Virus: Foscarnet (Selection # 1)
Description: as §1

[5] = test system: panel of NRTI and NNRTI resistant HIV-1; experiment: PhenoSense reporter assay, panel of ten resistant viruses; format: cell-based; conditions: FIG. 2; for susceptibility of the resistant virus panel: all viruses of the panel
From the text: Antiviral activity also can be quantitatively measured using a PhenoSense™ assay. A PhenoSense™ assay uses nucleic acid amplification to derive HIV protease and reverse transcriptase nucleic acid sequences from plasma. The patient-derived sequences are incorporated into a viral vector to construct a resistance test vector (RTV). The viral vector also contains an indicator or reporter gene (e.g., green fluorescent protein, luciferase, beta galactosidase, etc.) inserted within a deleted portion of the HIV envelope gene. The reporter gene is under the control of a strong promoter (e.g., a CMV promoter) in the RTV.
The PhenoSense™ assay is performed by introducing the RTV nucleic acid sequence into host cells, collecting virus particles after transfection, and using the virus particles to infect target cells. Drug susceptibility is measured by comparing reporter gene activity produced in the presence and absence of drugs. The presence of drug can be one or more different concentrations, for example, several titrated concentrations.
The data are analyzed by plotting the percent inhibition of viral replication, as measured by reporter gene activity, against the log10 concentration of drug for the patient virus (in the RTV) and a drug sensitive reference virus. The resulting drug susceptibility curve is used to calculate the concentration of drug required to inhibit viral replication by 50% (IC50). A shift in the patient inhibition curve toward a higher drug concentration as compared to the curve of the drug-sensitive reference virus is interpreted as reduced drug susceptibility. A shift in the patient inhibition curve toward a lower drug concentration as compared to the curve of the drug-sensitive reference virus is interpreted as increased drug susceptibility. PhenoSense™ can be conducted by a commercial service provider, for example, Monogram Biosciences, South San Francisco, Calif.
All Phenosense™ assays were performed at Virologic, Inc as described (Petropoulos, et al. (2000) Antimicrob Agents Chemother 44:920). Briefly, the envelope gene is deleted from wild type HIV-1 and luciferase reporter inserted under control of a strong CMV promoter. Viral stocks are produced by co-transfection of producer cells with the recombinant viral DNA and a vector that expresses envelope protein from an amphotropic murine leukemia virus. Pseudotyped viral particles are replication defective and only undergo one round of infection. Expression of the luciferase gene in target cells is dependent on a single round of infection.
The activity of Thiovir™ was evaluated against viruses that are resistant to common NRTI and NNRTI drugs using the Phenosense™ reporter system (Petropoulos, supra). […]

HIV in H9 T-cells = format: cell-based; conditions: p24 assay; combined with tenofovir at a ratio of 1:1
Description: Reduction in viral titer also can be measured using an ELISA capture assay with antibodies specific for viral capsid proteins (e.g., HIV-1 p24).
H9 T-cells were pretreated with polybrene at 4 μg/ml and drug at indicated concentrations in RPMI plus 10% fetal calf serum for 30 minutes prior to adsorption of virus at multiplicities of infection (MOI) 0.1 for 2 hours at 37° C., 5% CO2. Cells were washed 3 times with PBS and resuspended in fresh media plus drug. Incubation at 37° C., 5% CO2 was continued for 4-6 days and cells centrifuged at 1200 rpm. Supernatants were removed and p24 detected by quantitative antigen capture kit (Zeptometrix, Buffalo, N.Y.).

[6] = test system: Thiovir™ and foscarnet selected virus; experiment: Susceptibility of selected viruses; format: cell-based, HIV-1; conditions: both Thiovir™ and foscarnet selected virus
Description: Wild type and antiviral drug resistant HIV were tested for sensitivity to anti-viral drugs using either MAGI assay or Phenosense™ assay. The 50% inhibitory concentration, IC50, was then determined from a plot of percent inhibition vs. log10 drug concentration.
MAGI cells were seeded at approximately 5×10^4 cells per well in a 12 well plate in DMEM with 10% fetal calf serum and incubated overnight at 37° C. in 5% CO2. Drug was added at various concentrations and incubated for approximately 30 to 60 minutes. Cells were infected with either HIV-1 HXB2 or HIV-1IIIB in the presence of either 4 microg/ml polybrene or 60 microg/ml dextran. Infection was continued for 48 hours and cells fixed using 0.05% glutaraldehyde. […] Blue nuclei were counted under a microscope at 100× magnification.
To select for drug resistant variants, 1×10^6H9 cells were pretreated for two hours at three concentrations of AZT (0.5, 1 and 2 μM), Nevirapine (0.5, 1 and 2 μM), foscarnet (25 and 50 μM) and Thiovir™ (25 and 50 μM) prior to infection at MOI of 0.1 of HIVIIIB or HIVLAI. […] Virus was passaged at increasing drug concentration and monitored for increase in IC50. […]
Thiovir™ and foscarnet resistant viruses were selected by in vitro passage of HIVLAI on H9 cells in the presence of escalating concentrations of drug. Resistant virus was evaluated for phenotypic changes by IC50 determination using the MAGI assay. […]

| Compound | Susceptibility Index (IC50 Resistant Virus/IC50 Purent Virus) [1] | Susceptibility Index (IC50 Resistant Virus/IC50 Purent Virus) [2] | Susceptibility Index (IC50 Resistant Virus/IC50 Purent Virus) [3] | Susceptibility Index (IC50 Resistant Virus/IC50 Purent Virus) [4] | susceptibility of the resistant virus panel [5] | susceptibility of the majority of the panel viruses [5] | drug interaction in words, combined with tenofovir (HIV in H9 T-cells) | susceptibility of selected virus in words [6] | resistance of selected virus ([1]; second Thiovir™ selected resistant virus) | resistance of selected virus ([2]; first Thiovir™ selected resistant virus) |
| --- | --- | --- | --- | --- | --- | --- | --- | --- | --- | --- |
| O=C(O)P(=O)(O)O [Foscarnet, phosphonoformic acid] | 85 | 4.8 | 103 | 4.1 | sensitive | hypersensitive | additive to antagonistic | – | – | – |
| Cc1ccnc2c1NC(=O)c1cccnc1N2C1CC1 [Nevirapine] | – | 1.05 | – | 1.06 | – | – | – | sensitive | – | – |
| O=C(O)P(O)(O)=S [Thiovir™, thiophosphonoformic acid] | 113 | 4.8 | 100 | 6.3 | sensitive | hypersensitive | synergy | – | 85 fold | 4.8 fold |
| Cc1cn([C@H]2C[C@H](N=[N+]=[N-])[C@@H](CO)O2)c(=O)[nH]c1=O [Zidovudine, Azidothymidine] | 0.35 | 0.22 | 0.58 | 0.87 | – | – | – | – | – | – |
